Data set [1] has as its system SARS-CoV-2. Set-up: method as in Zhang et al. [31]. The settings on record: RT-PCR read-out after 18–24 h; ref Zhang et al. [31]; read-out: EC50 (anti-SARS-CoV-2 activity); cited from earlier work.
The test system of data set [2] is HEK293T. Set-up: method as in Ren et al. [33]. The settings on record: ref Ren et al. [33]; cited from earlier work.
Data set [3] deals with SARS-CoV-2. Description: microbe, parasite or virus in culture. In kind it is cell-based, SARS-CoV-2 isolate BetaCov/Belgium/GHB-03021/2020. The settings on record: for EC50: read-out: EC50 (anti-SARS-CoV-2 activity); for IC50: Severe acute respiratory syndrome coronavirus 2.
Data set [4] relates to SARS-CoV-2. Set-up: method as in Jin et al. [32]. The settings on record: in Vero cells; ref Jin et al. [32]; read-out: EC50 (anti-SARS-CoV-2 activity); cited from earlier work.
In data set [5] the test system is Huh-7. More on the design: method as in Ren et al. [33]. The settings on record: ref Ren et al. [33]; cited from earlier work.
In data set [6] the test system is Vero-E6 cells. The settings on record: for CC50: single experiment (duplicate experiments listed).
Data set [7] relates to Vero-E6. Set-up: method as in Ren et al. [33]. The settings on record: ref Ren et al. [33]; cited from earlier work.
Data set [8] concerns SARS-CoV-2. More on the design: method as in Ren et al. [33]. The settings on record: in the Vero-E6 cell; ref Ren et al. [33]; read-out: EC50 (anti-SARS-CoV-2 activity); cited from earlier work.
The test system of data set [9] is HEK293. More on the design: method as in Jin et al. [32]. The settings on record: on HEK293; ref Jin et al. [32]; cited from earlier work.
Details of data set [10]: method as in Zhang et al. [31]. The settings on record: ref Zhang et al. [31]; cited from earlier work.
Data set [11] can be described thus: in vitro. The settings on record: African green monkey.
Where [12] appears, read: Severe acute respiratory syndrome coronavirus 2, 96 h.
Where [13] appears, read: CC50 (cytotoxicity on Vero-E6 cells), MTS-assay, absence of virus.
Setting [14] is: CC50 (µM), single experiment (duplicate experiments listed), Vero-E6 cells.
The mark [15] stands for this setting: av. CC50 (µM), average of two experiments, Vero-E6 cells.

Read-outs that look alike come from different tables or passages of the source.

By EC50 is commonly meant the concentration that produces a half-maximal response. As usually defined, the IC50 is the concentration at which inhibition is half-maximal. Turning to `O[C@H]1[C@H]2c3cc4c(cc3CN3CCC(=C[C@@H]1O)[C@H]23)OCO4` [Compound 6, lycorine], the EC50 was 0.18 µM in data set [1], more than 100 µM in data set [3] (setting [12]), 0.878 ± 0.022 µM in data set [4] and 0.439 ± 0.122 µM in [8]. Further, the CC50 in data set [2] was 1.04 ± 0.0734 µM; in data set [5] it was 0.834 ± 0.063 µM; in data set [6], 1.14 µM; in data set [7], more than 1000 µM; in data set [9], more than 10 µM; in data set [10], more than 40 µM. Further, the CC50 in [11] (setting [13]) was found to be 1.2 µM; in [11] (setting [14]), 1.28 µM; in data set [11] (setting [15]), 1.21 µM. Moreover, in [3], the “antiviral activity against SARS-CoV-2 (in words)” value (“antiviral activity” for short) was “lacked selective antiviral activity”. The IC50 in data set [3] (read-out: IC50) and in data set [3] (read-out: av. IC50) was more than 100 µM throughout.
`COc1cc2c(cc1O)[C@@H]1[C@H](O)[C@H](O)C=C3CCN(C2)[C@H]31` (racemic) [Compounds 2 and 3, (±)-2-epi-pseudolycorine]: the “antiviral activity” value in data set [3] is “loss of the antiviral activity”. Further, in data set [3] (setting [12]), the EC50 is more than 100 µM. The IC50 in data set [3] (read-out: IC50) and in data set [3] (read-out: av. IC50) was more than 100 µM throughout. The CC50 in data set [11] (setting [13]), in [11] (setting [14]) and in data set [11] (setting [15]) was more than 100 µM in each case.
With `[O-]c1cc2c3c(c1)c1cc4c(cc1c[n+]3CC2)OCO4` [Compound 9, ungeremine], the figures for the “antiviral activity” value in [3] and in data set [3] (listed as ungeremine) were “lacked antiviral activity” and “did not improve its anti-SARS-CoV-2 potency”, respectively. The EC50 in [3] (setting [12]) is more than 100 µM. The IC50 in [3] (read-out: IC50) and in [3] (read-out: av. IC50) was more than 100 µM in each case. Further, the “cytotoxicity on Vero-E6 cells (in words)” value is listed as “lacked antiviral activity, as well as cytotoxicity” in data set [6] and “eliminated cytotoxicity on the Vero-E6 cell line” in data set [6] (listed as ungeremine). Besides, the CC50 in [11] (setting [13]), in [11] (setting [14]) and in data set [11] (setting [15]) was more than 100 µM in each case.
`Oc1ccc2c3c1OC1CC(O)CCC31CCNC2` (stereo not drawn) [Compound 1, O-demethyl-norlycoramine]: in data set [3] (setting [12]), the EC50 was 45 µM. The IC50 in [3] (read-out: IC50) came out at 54 µM; in data set [3] (read-out: av. IC50) it was 45.8 µM. In addition, the CC50 in data set [11] (setting [13]), in data set [11] (setting [14]) and in data set [11] (setting [15]) was more than 100 µM each time.
With `O=C1N[C@H]2[C@H](O)[C@H](O)[C@@H](O)[C@H](O)[C@@H]2c2cc3c(c(O)c21)OCO3` [Compound 10, pancratistatin], the “antiviral activity” value in data set [3] is recorded as “lacked selective antiviral activity”. The IC50 in data set [3] (read-out: IC50) and in data set [3] (read-out: av. IC50) was more than 100 µM throughout. Besides, the CC50 in [6] worked out at 0.122 µM; in [11] (setting [13]) it was 0.13 µM; in [11] (setting [14]) it was 0.14 µM.
As for `O[C@H]1[C@H]2c3cc4c(cc3CN3CCC(=C[C@H]1O)[C@H]23)OCO4` [Compound 7, 2-epi-lycorine], in data set [3] (setting [12]), the EC50 amounted to 54 µM. Besides, the results for the IC50 in data set [3] (read-out: IC50) and in data set [3] (read-out: av. IC50) were 69.3 µM and 54.2 µM, respectively. Further, the CC50 in [11] (setting [13]), in data set [11] (setting [14]) and in [11] (setting [15]) was more than 100 µM each time.
Turning to `COc1cc2c(c(O)c1OC)[C@]13CC[C@H](OC)C[C@H]1N(CC3)[C@@H]2O` [Compound 4, 6α-hydroxyhippeastidine], the EC50 in data set [3] (setting [12]) is 44 µM. For the same compound, the CC50 in data set [11] (setting [13]) was more than 100 µM.
Consider `COc1cc2c(cc1O)[C@@H]1[C@H](O)[C@H](O)C=C3CCN(C2)[C@H]31` [Compound 2, (−)-2-epi-pseudolycorine], for which the “antiviral activity” value in [3] was “lacked antiviral activity”. Also, the “cytotoxicity on Vero-E6 cells (in words)” value in [6] is listed as “lacked antiviral activity, as well as cytotoxicity”.
For the compound `COc1cc2c(cc1O)[C@@H](OC)O[C@@H]1CC=C3CCN(C)[C@H]3[C@H]21` [Compound 11, 9-O-demethyl-7-O-methyllycorenine], the EC50 in data set [3] (setting [12]) was 40 to 77 µM. The IC50 in [3] (read-out: IC50) was 99.4 µM; in [3] (read-out: av. IC50) it was 77.2 µM. In addition, the CC50 in data set [11] (setting [13]), in [11] (setting [14]) and in data set [11] (setting [15]) was more than 100 µM each time.
Consider `O[C@H]1[C@H]2c3cc4c(cc3CN3CCC(C[C@H]1O)[C@H]23)OCO4` (stereo partly drawn) [Compound 8, zephyranthine], for which the results for the EC50 in data set [3] (setting [12]) and in data set [3] were 40 to 77 µM and 39 µM, respectively. In addition, the half-inhibitory concentration (IC50) in data set [3] (read-out: IC50) stood at 37.1 µM; in data set [3] (read-out: av. IC50) it was 39.6 µM. Also, the CC50 in data set [11] (setting [13]), in data set [11] (setting [14]) and in data set [11] (setting [15]) was more than 100 µM in each case.
On to `COc1cc2c(c(O)c1OC)[C@]13CC[C@H](OC)C[C@H]1N(CC3)[C@H]2O` [Compound 5, 6β-hydroxyhippeastidine], for which, in [3] (setting [12]), the EC50 worked out at 44 µM. The compound further showed a CC50 in data set [11] (setting [13]) of more than 100 µM.
Take `COc1cc2c(cc1O)C1C(O)C(O)C=C3CCN(C2)C31` (single isomer, unassigned; (+)) [Compound 3, (+)-2-epi-pseudolycorine]: in [3], the “antiviral activity” value is reported as “lacked antiviral activity”. In addition, the “cytotoxicity on Vero-E6 cells (in words)” value in [6] is on record as “lacked antiviral activity, as well as cytotoxicity”.

The values above are taken from paper PMC10096449, “Anti-SARS-CoV-2 Activity and Cytotoxicity of Amaryllidaceae Alkaloids from Hymenocallis littoralis” (Molecules, 2023).
